# Measurements from patent US10759766B2, “Certain chemical entities, compositions, and methods” (NeuPharma, Inc., priority 2011, dated 2020).
# pIC50: −log10 of the molar value.
# Key:
# BRAF = BRAF (Homo sapiens (Human), UniProt P15056); assay: Z′-LYTE kinase inhibition assay (Invitrogen), BRAF; assay type: biochemical; settings: 1 μM compound, Z′-LYTE method; read-out: % inhibition at 1 μM against BRAF
# BRAF V600E = BRAF V600E (Homo sapiens (Human), UniProt P15056, V600E); assay: Z′-LYTE kinase inhibition assay (Invitrogen), BRAF V600E; assay type: biochemical; settings: Z′-LYTE method; for inhibition at 1 µM: 1 μM compound, read-out: % inhibition at 1 μM against BRAF V600E; for pIC50: read-out: IC50 against BRAF V600E
# Procedure, shortened: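 FRET-based Z′-LYTE peptide phosphorylation format in 50 mM HEPES pH 7.5, 0.01% BRIJ-35, 10 mM MgCl2, 1 mM EGTA with ATP. Kinase reaction 60 min at room temperature, then protease development step 60 min at room temperature before fluorescence read. IC50 from compound concentration versus percent inhibition.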
# KDR (VEGFR2) = KDR (VEGFR2) (Homo sapiens (Human), UniProt P35968); assay: Z′-LYTE kinase inhibition assay (Invitrogen), KDR; assay type: biochemical; settings: Z′-LYTE method; for inhibition at 1 µM: 1 μM compound, read-out: % inhibition at 1 μM against KDR; for pIC50: read-out: IC50 against KDR
# Procedure, shortened: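 Z′-LYTE FRET assay: 10 μL reactions with 0.5–11.7 ng KDR and 2 μM Tyr 01 peptide in 50 mM HEPES pH 7.5, 10 mM MgCl2, 1 mM EGTA, 0.01% BRIJ-35, 1 h at room temperature. Development Reagent B (1:256) added for 60 min, fluorescence read; IC50 from concentration–inhibition curves.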
# A375 cells = assay: Inhibition of cancer cell growth, MTT assay, A375; assay type: cell-based; settings: Homo sapiens, A-375, 72 h exposure
# Procedure, shortened: (§1)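 Cells grown in RPMI 1640 with 10% FBS were seeded at about 4000 cells/well, left 24 h, then exposed to compound for 72 h (1% DMSO final). MTT absorbance at 570 nm was compared with viable cells at time of addition to give growth inhibition; IC50 from concentration–inhibition plots, triplicates.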
# A549 cells = assay: Inhibition of cancer cell growth, MTT assay, A549; assay type: cell-based; settings: Homo sapiens, A549, 72 h exposure
# Procedure, shortened: as §1
# BRAF V600E, sequence (P15056 whole entry V600E): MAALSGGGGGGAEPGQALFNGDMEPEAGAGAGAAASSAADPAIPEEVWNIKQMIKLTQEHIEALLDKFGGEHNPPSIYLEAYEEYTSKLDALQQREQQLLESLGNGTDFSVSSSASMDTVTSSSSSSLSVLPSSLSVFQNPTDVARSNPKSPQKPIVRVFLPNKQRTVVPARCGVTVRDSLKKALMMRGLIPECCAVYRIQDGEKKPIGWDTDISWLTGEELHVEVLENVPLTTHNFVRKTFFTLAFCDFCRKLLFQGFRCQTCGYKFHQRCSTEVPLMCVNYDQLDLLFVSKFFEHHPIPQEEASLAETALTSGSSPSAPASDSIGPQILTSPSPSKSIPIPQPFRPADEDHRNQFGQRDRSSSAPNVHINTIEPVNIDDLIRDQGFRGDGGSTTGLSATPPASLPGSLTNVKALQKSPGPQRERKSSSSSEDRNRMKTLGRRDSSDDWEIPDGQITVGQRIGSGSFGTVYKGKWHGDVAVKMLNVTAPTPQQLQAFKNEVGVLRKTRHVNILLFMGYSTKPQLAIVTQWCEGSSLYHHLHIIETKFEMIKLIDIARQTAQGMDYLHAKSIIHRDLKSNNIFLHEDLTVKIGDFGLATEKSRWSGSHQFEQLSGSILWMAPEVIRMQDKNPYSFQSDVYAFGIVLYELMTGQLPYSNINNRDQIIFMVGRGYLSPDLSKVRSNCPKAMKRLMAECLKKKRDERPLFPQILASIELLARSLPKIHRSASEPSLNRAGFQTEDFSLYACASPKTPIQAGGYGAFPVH
# KDR (VEGFR2), sequence (P35968 20-1356): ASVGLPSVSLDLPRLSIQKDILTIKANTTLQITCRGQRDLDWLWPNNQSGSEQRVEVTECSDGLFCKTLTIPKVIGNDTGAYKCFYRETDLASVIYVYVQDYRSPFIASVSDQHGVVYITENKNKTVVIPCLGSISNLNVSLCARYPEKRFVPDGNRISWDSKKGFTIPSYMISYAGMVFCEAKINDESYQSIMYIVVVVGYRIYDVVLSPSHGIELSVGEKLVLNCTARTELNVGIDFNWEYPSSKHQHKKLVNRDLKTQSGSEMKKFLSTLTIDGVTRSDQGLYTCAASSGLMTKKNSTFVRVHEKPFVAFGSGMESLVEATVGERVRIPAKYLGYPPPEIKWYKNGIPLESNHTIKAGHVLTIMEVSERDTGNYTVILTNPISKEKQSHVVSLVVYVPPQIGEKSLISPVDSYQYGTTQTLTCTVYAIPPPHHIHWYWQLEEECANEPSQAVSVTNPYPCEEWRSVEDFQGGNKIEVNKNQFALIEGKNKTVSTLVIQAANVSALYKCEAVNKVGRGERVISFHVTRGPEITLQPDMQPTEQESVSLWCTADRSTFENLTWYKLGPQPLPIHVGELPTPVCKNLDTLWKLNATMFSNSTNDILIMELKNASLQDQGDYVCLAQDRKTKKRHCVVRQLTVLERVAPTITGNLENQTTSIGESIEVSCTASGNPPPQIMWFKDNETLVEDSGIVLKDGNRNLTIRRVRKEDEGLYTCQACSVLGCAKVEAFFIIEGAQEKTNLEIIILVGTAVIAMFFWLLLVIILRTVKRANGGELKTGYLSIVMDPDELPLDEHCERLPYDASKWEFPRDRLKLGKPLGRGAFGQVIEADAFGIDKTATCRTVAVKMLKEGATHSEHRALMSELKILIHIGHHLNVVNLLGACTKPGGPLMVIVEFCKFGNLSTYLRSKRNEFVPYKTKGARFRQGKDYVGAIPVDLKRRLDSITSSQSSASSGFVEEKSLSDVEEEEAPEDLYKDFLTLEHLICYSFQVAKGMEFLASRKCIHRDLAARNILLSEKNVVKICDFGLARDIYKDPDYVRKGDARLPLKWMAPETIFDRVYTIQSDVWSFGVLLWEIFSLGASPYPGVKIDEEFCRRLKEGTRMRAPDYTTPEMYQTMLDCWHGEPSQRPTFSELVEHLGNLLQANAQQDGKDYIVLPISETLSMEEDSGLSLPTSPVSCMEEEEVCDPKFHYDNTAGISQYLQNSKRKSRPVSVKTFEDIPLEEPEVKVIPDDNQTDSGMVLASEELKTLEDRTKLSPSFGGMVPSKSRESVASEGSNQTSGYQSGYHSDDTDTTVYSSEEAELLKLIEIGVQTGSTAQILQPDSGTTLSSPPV
# BRAF, sequence (P15056 whole entry): as the sequence (P15056 whole entry V600E) above, with E600V counted along it
SMILES,inhibition at 1 µM (BRAF) [%],inhibition at 1 µM (BRAF V600E) [%],pIC50 (BRAF V600E),inhibition at 1 µM (KDR (VEGFR2)) [%],pIC50 (KDR (VEGFR2)),pIC50 (A375 cells),pIC50 (A549 cells)
"O=C(Nc1cccc(C(=O)c2ccc3ncc(N4CCOCC4)nc3c2)c1)Nc1cccc(C(F)(F)F)c1 [Compound C017, 1-(3-(3-morpholinoquinoxaline-6-carbonyl)phenyl)-3-(3-(trifluoromethyl)phenyl)urea]",70 to 89,> 89,> 7.00,> 89,> 7.00,> 6.00,> 5.70
"O=C(Nc1cc(F)c(F)c(C(=O)c2ccc3ncc(N4CCOCC4)nc3c2)c1)c1ccc(Cl)c(C(F)(F)F)c1 [Compound C146, 4-chloro-N-(3,4-difluoro-5-(3-morpholinoquinoxaline-6-carbonyl)phenyl)-3-(trifluoromethyl)benzamide]",< 70,70 to 89,< 7.00,> 89,> 7.00,> 6.00,5.30 to 5.70
"O=C(Nc1cccc(F)c1)Nc1ccc(F)c(C(=O)c2ccc3ncc(N4CCOCC4)nc3c2)c1 [Compound C035, 1-(4-fluoro-3-(3-morpholinoquinoxaline-6-carbonyl)phenyl)-3-(3-fluorophenyl)urea]",70 to 89,> 89,> 7.00,70 to 89,> 7.00,> 6.00,5.30 to 5.70
"O=C(Nc1cccc(C(=O)c2ccc3nccnc3c2)c1)c1cccc(C(F)(F)F)c1 [Compound C110, N-(3-(quinoxaline-6-carbonyl)phenyl)-3-(trifluoromethyl)benzamide]",70 to 89,70 to 89,–,< 70,–,< 5.30,5.30 to 5.70
"Cn1cc(-c2cnc3ccc(C(=O)c4cccc(NC(=O)Nc5ccc(Cl)c(C(F)(F)F)c5)c4)cc3n2)cn1 [Compound C028, 1-(4-chloro-3-(trifluoromethyl)phenyl)-3-(3-(3-(1-methyl-1H-pyrazol-4-yl)quinoxaline-6-carbonyl)phenyl)urea]",70 to 89,> 89,> 7.00,> 89,> 7.00,> 6.00,> 5.70
"O=C(Nc1ccc(F)c(F)c1)Nc1ccc(F)c(C(=O)c2ccc3ncc(NCCO)nc3c2)c1 [Compound C087, 1-(3,4-difluorophenyl)-3-(4-fluoro-3-(3-((2-hydroxyethyl)amino)quinoxaline-6-carbonyl)phenyl)urea]",> 89,> 89,–,> 89,–,> 6.00,5.30 to 5.70
"O=C(Nc1cc(F)c(F)c(C(=O)c2ccc3ncc(N4CCOCC4)nc3c2)c1)Nc1ccc(Cl)c(C(F)(F)F)c1 [Compound C041, 1-(4-chloro-3-(trifluoromethyl)phenyl)-3-(3,4-difluoro-5-(3-morpholinoquinoxaline-6-carbonyl)phenyl)urea]",< 70,70 to 89,–,70 to 89,–,> 6.00,> 5.70
"O=C(Nc1cc(F)c(F)c(C(=O)c2ccc3nccnc3c2)c1F)c1cccc(C(F)(F)F)c1 [Compound C109, N-(2,4,5-trifluoro-3-(quinoxaline-6-carbonyl)phenyl)-3-(trifluoromethyl)benzamide]",< 70,70 to 89,< 7.00,70 to 89,< 7.00,< 5.30,5.30 to 5.70
"O=C(Nc1ccc(Cl)c(Cl)c1)Nc1ccc(F)c(C(=O)c2ccc3nccnc3c2)c1 [Compound C076, 1-(3,4-dichlorophenyl)-3-(4-fluoro-3-(quinoxaline-6-carbonyl)phenyl)urea]",70 to 89,> 89,–,70 to 89,–,> 6.00,5.30 to 5.70
"O=C(Nc1cccc(C(F)(F)F)c1)Nc1cc(F)c(F)c(C(=O)c2ccc3nccnc3c2)c1F [Compound C006, 1-(2,4,5-trifluoro-3-(quinoxaline-6-carbonyl)phenyl)-3-(3-(trifluoromethyl)phenyl)urea]",< 70,70 to 89,–,< 70,–,< 5.30,< 5.30
"O=C(Nc1cccc(C(=O)c2ccc3ncc(N4CCOCC4)nc3c2)c1)c1cccc(C(F)(F)F)c1 [Compound C119, N-(3-(3-morpholinoquinoxaline-6-carbonyl)phenyl)-3-(trifluoromethyl)benzamide]",70 to 89,> 89,> 7.00,> 89,> 7.00,> 6.00,5.30 to 5.70
"O=C(Nc1cccc(Cl)c1)Nc1cccc(C(=O)c2ccc3nccnc3c2)c1 [Compound C003, 1-(3-chlorophenyl)-3-(3-(quinoxaline-6-carbonyl)phenyl)urea]",70 to 89,> 89,–,70 to 89,–,> 6.00,5.30 to 5.70
"O=C(Nc1cccc(C(=O)c2ccc3ncc(-n4ccnc4)nc3c2)c1)c1ccc(Cl)c(C(F)(F)F)c1 [Compound C132, N-(3-(3-(1H-imidazol-1-yl)quinoxaline-6-carbonyl)phenyl)-4-chloro-3-(trifluoromethyl)benzamide]",< 70,> 89,–,70 to 89,–,> 6.00,< 5.30
"O=C(Nc1ccc(F)c(C(=O)c2ccc3nccnc3c2)c1)Nc1ccc(Cl)c(C(F)(F)F)c1 [Compound C015, 1-(4-chloro-3-(trifluoromethyl)phenyl)-3-(4-fluoro-3-(quinoxaline-6-carbonyl)phenyl)urea]",< 70,> 89,> 7.00,> 89,> 7.00,> 6.00,> 5.70
